# Where a SMILES comes first, the peptide text is derived from it. The star is where a group is joined. Cbz = O=C(OCc1ccccc1)*; CH2F = FC*
# Key:
# Type in all cases: in vivo, mouse
# [1] = system: retinal ganglion cells (RGCs); test: Brn3b immunohistochemistry (viable RGCs) after ON injury; conditions: RIP3−/− mice; seven days after ON injury
# Description: (§1) Two mouse models of RGC death were utilized: optic nerve (ON) injury and N-methyl-D-aspartate (NMDA) retinal excitotoxicity. ON injury leads to RGC death as a result of primary damage to the axons, with its ensuing disruption of retrograde axonal transport (Libby et al., (2005) PLOS GENET 1:17-26) and is used as an RGC death model. In the ON injury model, mice were anesthetized and subjected to severe crush injury at 1-2 mm distance from the eyeball for 15 seconds using cross-action forceps taking special care not to interfere with the blood supply (Levkovitch-Verbin, (2004) EYE 18:1066-1074). Injured mice were randomly divided into 4 groups for treatment: vehicle group (0.5% DMSO and 0.8% cyclodextrin in PBS, n=6), ZVAD group (300 n=6), Nec-1 group (4 mM, n=6), and ZVAD plus Nec-1 group (n=6). Soon after injury, each group received an intravitreal injection (2 μl) with the respective compounds. In the NMDA retinal excitotoxicity model, NMDA (2 μl of a 0.1M stock; Sigma-Aldrich) was injected intravitreously in combination with ZVAD, Nec-1, or ZVAD plus Nec-1 and mice were separated into the aforementioned 4 groups. […]
# [2] = system: retinal ganglion cells (RGCs); test: NMDA retinal excitotoxicity model: Brn3b positive cells; conditions: NMDA injected intravitreously in combination with the compounds
# Description: as §1
# Atg5, 7 and 12 = test: Atg5, Atg7 and Atg12 expression after ON injury (quantitative RT-PCR); conditions: one day after ON injury; compared with vehicle treatment
# Protocol: Total RNA extraction, cDNA synthesis and PCR amplification have been performed as previously reported (Kayama et al., (2010) OPHTHALMIC RES 43:79-91). A real-time PCR assay was performed with Prism 7700 Sequence Detection System (Applied Biosystems, Foster City, Calif.). The primers are shown below in Table 1.
# For relative comparison of each gene, the Ct value of real-time PCR data was analyzed with the ΔΔCt method and normalized to an endogenous control ([…].
# To investigate whether autophagy influences RGC death after ON injury, expression of several genes critical for autophagosome formation including Atg5, 7 and 12 was measured by quantitative RT-PCR. […] In contrast, administration of ZVAD plus Nec-1, or Rip3 deficiency suppressed expression of Atg5, 7 and 12 transcripts (FIGS. 9A-9C).
# LC3-II = test: LC3 protein level after ON injury (western blot); conditions: one day after ON injury
# Protocol: For Western blot analysis, whole retinas were harvested and lysed for 30 min on ice in lysis buffer (50 mM Tris-HCl [pH 8], with 120 mM NaCl and 1% Nonidet P-40), supplemented with a mixture of proteinase inhibitors (Complete Mini; Roche Diagnostics, Basel, Switzerland). Thirty micrograms of protein per sample were separated in a 4-20% gradient sodium dodecyl sulfate-polyacrylamide gel (SDS-PAGE) (Invitrogen Corporation, Carlsbad, Calif., USA) electrophoresis and the proteins were electroblotted onto PVDF membranes. After 20 min incubation in blocking solution (Starting Block™ T20, Thermo Scientific, Waltham, Mass.), membranes were incubated with primary antibodies overnight at 4° C. Peroxidase-labeled secondary antibodies (Amersham Pharmacia Biotech, Piscataway, N.J., USA) were used and proteins were visualized with enhanced chemiluminescence technique (Amersham Pharmacia Biotech). Full list of primary antibodies and working concentrations are shown below in Table 2.
# Protein levels of LC3, an autophagy marker, were also assessed by western blot analysis.
structure (smiles),measurement,setting,value
"COC(=O)CC(NC(=O)C(C)NC(=O)C(NC(=O)OCc1ccccc1)C(C)C)C(=O)CF (stereo not drawn) [Z-VAD, Benzyloxycarbonyl-Val-Ala-Asp(OMe)-fluoromethylketone] (Cbz-Val-Ala-Asp(OMe)-CH2F; configuration not given here)",number of Brn3b positive cells,[1],further enhanced
same,reduction of Brn3b positive cells,[2],prevented the reduction of Brn3b positive cells
same,Atg12 expression,"Atg5, 7 and 12",further increased
same,protein level of LC3-II,LC3-II,increased more than vehicle

# — patent US10617735B2, “Methods and compositions for preserving retinal ganglion cells” (Massachusetts Eye and Ear Infirmary, priority 2010, dated 2020)
